Data published in the NIST ThermoML archive (doi:10.1021/je025655p).
Numbers after ± are expanded uncertainties.

Settings: 101.33 kPa, Liquid; for viscosity: Capillary tube (Ostwald / Ubbelohde) method; for speed of sound: Sing-around technique in a fixed-path interferometer; for mass density: Vibrating tube method

Structure (SMILES)	viscosity (283.15 K) [mPa·s]	speed of sound (283.15 K) [m/s]	mass density (283.15 K) [kg/m3]	viscosity (298.15 K) [mPa·s]	speed of sound (298.15 K) [m/s]	mass density (298.15 K) [kg/m3]	viscosity (313.15 K) [mPa·s]	speed of sound (313.15 K) [m/s]	mass density (313.15 K) [kg/m3]
OCC(F)(F)F [2,2,2-trifluoroethanol]	2.693 ± 0.023	872.3 ± 1.2	1407.89 ± 0.21	1.755 ± 0.017	826.7 ± 1.1	1382.44 ± 0.2	1.208 ± 0.012	791.7 ± 1.1	1356.91 ± 0.19
C1CCOCC1 [tetrahydropyran]	1.005 ± 0.0098	1335.8 ± 1.6	894.08 ± 0.46	0.8005 ± 0.0081	1255 ± 1.6	879.18 ± 0.45	0.6494 ± 0.0067	1199.8 ± 1.6	864.37 ± 0.45
